Experimental findings from publication PMC4770715, “LIM kinase inhibitors disrupt mitotic microtubule organization and impair tumor cell proliferation” (Oncotarget, 2015) are described below.

What all share (assay): biochemical
What all share (parameters): KINOMEscan active-site competition binding, percent of control (100 = no competition)
Holding throughout (settings): competition binding, percent control

The target of test [1] is T1, TYK2(JH2domain-pseudokinase) (Homo sapiens, UniProt P29597).
T1 construct: JH2domain-pseudokinase

For test [2], the target named is CDKL5 (Homo sapiens, UniProt O76039).
Sequence of CDKL5 (O76039 whole entry): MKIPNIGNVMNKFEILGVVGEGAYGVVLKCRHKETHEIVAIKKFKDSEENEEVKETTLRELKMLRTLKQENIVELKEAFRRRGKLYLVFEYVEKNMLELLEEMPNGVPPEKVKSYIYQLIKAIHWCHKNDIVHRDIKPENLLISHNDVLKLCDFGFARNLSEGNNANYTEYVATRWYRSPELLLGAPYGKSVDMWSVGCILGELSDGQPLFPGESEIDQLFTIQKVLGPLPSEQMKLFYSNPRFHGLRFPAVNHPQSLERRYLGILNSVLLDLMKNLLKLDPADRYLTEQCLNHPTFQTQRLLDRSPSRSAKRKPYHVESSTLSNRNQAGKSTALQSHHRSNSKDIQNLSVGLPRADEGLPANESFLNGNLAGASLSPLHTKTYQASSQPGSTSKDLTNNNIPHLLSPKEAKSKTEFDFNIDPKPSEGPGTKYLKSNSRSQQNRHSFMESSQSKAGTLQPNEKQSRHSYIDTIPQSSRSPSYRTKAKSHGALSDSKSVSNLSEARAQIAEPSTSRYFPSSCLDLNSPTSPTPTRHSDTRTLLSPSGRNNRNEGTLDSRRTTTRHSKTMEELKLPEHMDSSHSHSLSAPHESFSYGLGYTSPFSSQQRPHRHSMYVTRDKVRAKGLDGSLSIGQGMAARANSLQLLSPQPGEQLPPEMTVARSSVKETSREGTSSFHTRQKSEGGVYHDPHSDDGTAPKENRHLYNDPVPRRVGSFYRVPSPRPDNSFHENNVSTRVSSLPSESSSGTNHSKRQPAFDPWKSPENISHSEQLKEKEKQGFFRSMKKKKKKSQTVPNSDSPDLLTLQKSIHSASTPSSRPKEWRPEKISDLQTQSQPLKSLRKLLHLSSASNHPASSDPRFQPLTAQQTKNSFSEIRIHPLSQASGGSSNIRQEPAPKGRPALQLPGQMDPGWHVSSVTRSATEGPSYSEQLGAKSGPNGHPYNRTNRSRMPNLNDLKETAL
The target of test [3] is CLK2 (Homo sapiens, UniProt P49760).
Test [4] deals with SRC (Homo sapiens, UniProt P12931).
Test [5] has as its target T2, CDC2L1 (Homo sapiens, UniProt P21127).
T2 construct: gene CDK11B

Test [6] concerns the target IRAK1 (Homo sapiens, UniProt P51617).
Test [7] has as its target HIPK1 (Homo sapiens, UniProt Q86Z02).
The target in test [8] is T3, PCTK3 (Homo sapiens, UniProt Q07002).
T3 construct: gene CDK18
T3 sequence (Q07002 whole entry): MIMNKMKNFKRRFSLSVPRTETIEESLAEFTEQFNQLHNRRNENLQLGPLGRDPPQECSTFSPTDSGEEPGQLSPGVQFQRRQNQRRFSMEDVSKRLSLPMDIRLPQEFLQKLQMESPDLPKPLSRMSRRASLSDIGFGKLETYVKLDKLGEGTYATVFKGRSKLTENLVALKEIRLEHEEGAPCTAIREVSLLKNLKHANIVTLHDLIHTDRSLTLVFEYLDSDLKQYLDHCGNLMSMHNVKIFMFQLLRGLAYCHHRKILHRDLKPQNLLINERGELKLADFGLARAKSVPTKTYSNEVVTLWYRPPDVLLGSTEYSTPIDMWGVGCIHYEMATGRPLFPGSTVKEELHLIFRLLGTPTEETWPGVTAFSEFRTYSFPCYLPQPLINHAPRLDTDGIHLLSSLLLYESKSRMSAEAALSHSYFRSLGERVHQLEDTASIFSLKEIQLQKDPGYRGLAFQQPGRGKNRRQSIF

In test [9] the target is EPHA5 (Homo sapiens, UniProt P54756).
Test [10] deals with SRMS (Homo sapiens, UniProt Q9H3Y6).
In test [11] the target is T4, PIK4CB (Homo sapiens, UniProt Q9UBF8).
T4 construct: gene PI4KB

Test [12] deals with CHEK1 (Homo sapiens, UniProt O14757).
Test [13] concerns the target CDKL3 (Homo sapiens, UniProt Q8IVW4).
Test [14] deals with AKT3 (Homo sapiens, UniProt Q9Y243).
Test [15] concerns the target MST1R (Homo sapiens, UniProt Q04912).
Test [16] concerns the target T5, ZAK (Homo sapiens, UniProt Q9NYL2).
T5 construct: gene MAP3K20

The target of test [17] is T6, ABL1(Q252H)-nonphosphorylated (Homo sapiens, UniProt P00519, Q252H).
T6 construct: nonphosphorylated

In test [18] the target is PIM1 (Homo sapiens, UniProt P11309).
Test [19] addresses T7, MEK6 (Homo sapiens, UniProt P52564).
T7 construct: gene MAP2K6

In test [20] the target is FGR (Homo sapiens, UniProt P09769).
In test [21] the target is T8, YANK1 (Homo sapiens, UniProt Q8WU08).
T8 construct: gene STK32A

In test [22] the target is PIK3CA(M1043I) (Homo sapiens, UniProt P42336, M1043I).
The target of test [23] is T9, TAK1 (Homo sapiens, UniProt O43318).
T9 construct: gene MAP3K7
T9 sequence (O43318 whole entry): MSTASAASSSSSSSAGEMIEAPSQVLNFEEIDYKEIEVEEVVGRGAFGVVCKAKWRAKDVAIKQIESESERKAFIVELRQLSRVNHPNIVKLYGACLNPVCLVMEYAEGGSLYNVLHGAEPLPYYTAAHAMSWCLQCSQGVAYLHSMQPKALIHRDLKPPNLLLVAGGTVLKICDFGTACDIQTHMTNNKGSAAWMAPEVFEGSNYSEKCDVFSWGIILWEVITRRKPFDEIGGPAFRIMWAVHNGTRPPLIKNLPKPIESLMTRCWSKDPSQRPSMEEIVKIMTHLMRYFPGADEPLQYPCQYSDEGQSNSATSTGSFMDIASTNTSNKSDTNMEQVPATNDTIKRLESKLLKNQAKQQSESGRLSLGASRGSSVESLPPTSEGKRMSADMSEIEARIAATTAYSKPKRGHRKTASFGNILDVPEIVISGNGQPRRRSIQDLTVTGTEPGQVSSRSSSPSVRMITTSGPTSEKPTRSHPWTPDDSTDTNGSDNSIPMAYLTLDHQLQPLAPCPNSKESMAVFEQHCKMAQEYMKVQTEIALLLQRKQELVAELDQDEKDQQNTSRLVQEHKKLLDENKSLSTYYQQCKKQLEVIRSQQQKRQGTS

T5 sequence (Q9NYL2 whole entry): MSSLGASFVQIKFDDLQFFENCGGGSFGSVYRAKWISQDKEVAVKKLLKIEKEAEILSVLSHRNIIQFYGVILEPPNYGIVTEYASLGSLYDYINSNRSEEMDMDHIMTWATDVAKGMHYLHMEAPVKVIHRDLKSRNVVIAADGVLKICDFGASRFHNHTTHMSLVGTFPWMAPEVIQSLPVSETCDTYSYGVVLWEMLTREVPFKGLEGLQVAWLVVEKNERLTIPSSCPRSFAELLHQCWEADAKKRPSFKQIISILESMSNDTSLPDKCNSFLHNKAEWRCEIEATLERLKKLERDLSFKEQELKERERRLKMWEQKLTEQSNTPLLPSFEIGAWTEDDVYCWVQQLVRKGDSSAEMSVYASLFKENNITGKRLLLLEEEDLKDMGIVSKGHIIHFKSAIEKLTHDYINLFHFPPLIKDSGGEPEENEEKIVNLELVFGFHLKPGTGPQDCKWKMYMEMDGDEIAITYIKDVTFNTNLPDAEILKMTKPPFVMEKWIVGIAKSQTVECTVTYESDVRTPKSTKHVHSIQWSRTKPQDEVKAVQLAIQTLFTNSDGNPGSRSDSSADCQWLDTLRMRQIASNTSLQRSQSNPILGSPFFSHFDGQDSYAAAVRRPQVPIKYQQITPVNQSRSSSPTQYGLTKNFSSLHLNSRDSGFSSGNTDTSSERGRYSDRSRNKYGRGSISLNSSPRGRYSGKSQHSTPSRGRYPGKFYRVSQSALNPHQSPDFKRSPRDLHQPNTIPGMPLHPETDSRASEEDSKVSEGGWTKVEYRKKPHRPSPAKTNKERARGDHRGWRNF
Sequence of MST1R (Q04912 whole entry): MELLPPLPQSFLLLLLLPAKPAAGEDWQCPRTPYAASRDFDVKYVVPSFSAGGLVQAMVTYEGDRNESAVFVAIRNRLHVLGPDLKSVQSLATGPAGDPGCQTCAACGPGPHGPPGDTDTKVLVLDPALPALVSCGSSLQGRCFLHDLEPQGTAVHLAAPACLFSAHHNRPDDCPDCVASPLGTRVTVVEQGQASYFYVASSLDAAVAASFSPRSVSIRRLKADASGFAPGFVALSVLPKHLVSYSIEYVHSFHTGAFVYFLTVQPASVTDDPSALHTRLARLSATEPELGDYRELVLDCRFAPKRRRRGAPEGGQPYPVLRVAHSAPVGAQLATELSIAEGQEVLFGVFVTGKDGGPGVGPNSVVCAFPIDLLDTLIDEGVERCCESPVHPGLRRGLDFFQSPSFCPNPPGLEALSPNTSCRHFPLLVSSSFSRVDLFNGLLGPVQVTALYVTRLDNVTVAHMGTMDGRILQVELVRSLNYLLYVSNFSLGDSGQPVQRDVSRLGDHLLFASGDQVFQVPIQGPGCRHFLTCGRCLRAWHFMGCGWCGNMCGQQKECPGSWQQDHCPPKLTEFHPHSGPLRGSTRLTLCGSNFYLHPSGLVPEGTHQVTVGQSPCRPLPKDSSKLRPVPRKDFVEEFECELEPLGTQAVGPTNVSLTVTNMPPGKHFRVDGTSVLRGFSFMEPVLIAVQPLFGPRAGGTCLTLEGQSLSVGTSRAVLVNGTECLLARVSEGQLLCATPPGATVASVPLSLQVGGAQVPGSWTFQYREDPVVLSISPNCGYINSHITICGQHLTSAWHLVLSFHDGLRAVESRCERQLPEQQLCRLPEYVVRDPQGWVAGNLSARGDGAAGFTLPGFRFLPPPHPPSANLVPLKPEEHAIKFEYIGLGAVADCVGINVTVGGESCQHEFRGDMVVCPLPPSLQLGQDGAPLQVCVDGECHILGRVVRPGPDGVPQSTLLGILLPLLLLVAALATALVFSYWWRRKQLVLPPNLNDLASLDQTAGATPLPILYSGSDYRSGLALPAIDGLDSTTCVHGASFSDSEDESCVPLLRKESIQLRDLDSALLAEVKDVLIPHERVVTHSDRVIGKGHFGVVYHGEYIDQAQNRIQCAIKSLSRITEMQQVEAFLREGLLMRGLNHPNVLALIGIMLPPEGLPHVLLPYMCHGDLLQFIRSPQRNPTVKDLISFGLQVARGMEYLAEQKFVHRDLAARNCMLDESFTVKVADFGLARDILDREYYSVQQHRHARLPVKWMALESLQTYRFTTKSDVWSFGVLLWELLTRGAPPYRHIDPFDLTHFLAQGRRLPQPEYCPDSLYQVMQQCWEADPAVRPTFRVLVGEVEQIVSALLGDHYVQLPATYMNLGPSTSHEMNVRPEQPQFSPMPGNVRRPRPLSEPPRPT
T2 sequence (P21127 whole entry): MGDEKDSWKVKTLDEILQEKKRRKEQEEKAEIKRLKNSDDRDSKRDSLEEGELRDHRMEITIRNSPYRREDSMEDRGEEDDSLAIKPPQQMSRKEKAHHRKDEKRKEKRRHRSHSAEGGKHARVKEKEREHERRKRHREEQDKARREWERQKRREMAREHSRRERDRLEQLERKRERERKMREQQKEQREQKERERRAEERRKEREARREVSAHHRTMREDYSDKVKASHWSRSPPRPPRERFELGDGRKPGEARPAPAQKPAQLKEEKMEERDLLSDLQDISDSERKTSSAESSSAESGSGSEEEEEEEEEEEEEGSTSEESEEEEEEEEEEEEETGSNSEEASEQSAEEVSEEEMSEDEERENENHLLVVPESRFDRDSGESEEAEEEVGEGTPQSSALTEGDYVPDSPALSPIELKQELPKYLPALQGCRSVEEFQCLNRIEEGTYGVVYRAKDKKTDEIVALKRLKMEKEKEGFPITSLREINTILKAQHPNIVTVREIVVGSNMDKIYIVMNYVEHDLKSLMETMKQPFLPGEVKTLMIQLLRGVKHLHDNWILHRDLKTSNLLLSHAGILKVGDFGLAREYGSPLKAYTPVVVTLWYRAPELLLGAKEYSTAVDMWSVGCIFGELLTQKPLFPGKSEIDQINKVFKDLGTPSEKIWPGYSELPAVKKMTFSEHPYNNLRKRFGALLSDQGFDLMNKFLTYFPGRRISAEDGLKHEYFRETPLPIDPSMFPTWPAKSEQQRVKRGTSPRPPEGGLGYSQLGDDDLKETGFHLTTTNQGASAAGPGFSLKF

For the compound `COc1ccc(-c2cnccc2-c2cnc(NC(=O)C(C)C)s2)c(C(F)(F)F)c1` [CRT0105446, N-{5-[3-(4-Methoxy-2-trifluoromethyl-phenyl)-pyridin-4-yl]-hiazol-2-yl}-isobutyramide], the remaining binding at 10 µM in test [1] was found to be 100%; in test [2], 100%; in [3] it was 78%; in [4], 100%; in test [5], 54%; in test [6] it was 94%. The remaining binding at 10 µM in [7] is 100%; in [8], 7.7%; in test [9] it was 100%; in test [10], 93%; in test [11], 80%; in test [12] it was 100%. Further, the remaining binding at 10 µM in test [13] was found to be 26%; in [14], 100%; in [15], 100%; in [16], 100%; in test [17], 83%; in [18], 96%. Also, the remaining binding at 10 µM in [19] was determined as 100%; in test [20], 93%; in [21] it was 69%; in test [22] it was 100%; in [23], 79%.

Take `Cc1ccc(-c2cnccc2-c2cnc(Nc3ccc(O)cc3)s2)c(Cl)c1` [CRT0105950, 4-{5-[3-(2-Chloro-4-methyl-phenyl)-pyridin-4-yl]-thiazol-2-ylamino}-phenol]: the remaining binding at 10 µM in test [1] stood at 81%; in test [2], 99%; in test [3], 0.45%; in [4], 82%; in test [5], 71%; in test [6] it was 56%. Further, the remaining binding at 10 µM in [7] was determined as 65%; in test [8], 68%; in [9], 100%; in [10], 87%; in test [11], 2.9%; in test [12] it was 88%. The remaining binding at 10 µM in test [13] is 23%; in [14], 100%; in [15], 92%; in [16], 9%; in test [17], 70%; in test [18] it was 76%. Also, the remaining binding at 10 µM is 20% in [19]; 32% in test [20]; 88% in [21]; 100% in test [22]; 33% in test [23].
